Laboratory results as given in US7618816B2, “Metal-binding therapeutic peptides” (Ontherix, Inc., priority 2005, dated 2009).
Where no end group is shown, it is not given here.

Legend:
Test in all cases: Uptake of SA-HRP::MBD peptide complexes
435 = assay type: cell-based
Procedure: (§1) HEK293 kidney cell line and 54 tumor cell lines obtained from the National Cancer Institute and passaged in RPMI1640 cell culture medium supplemented with 10% fetal bovine serum and 10 uM FeCl2. Uptake of streptavidin-horseradish peroxidase (SA-HRP) conjugate and of various SA-HRP::MBD peptide complexes was determined as described (Singh et al. J Biol Chem. 279 (1):477-87 [2004]) using biotinylated MBD9 ([…]) (SEQ ID NO: 10) and MBD21 ([…]) (SEQ ID NO: 4) peptides and SA-HRP. Nuclear and cytoplasmic localization of these proteins was also determined in each case. […] In order to establish the underlying molecular mechanism for this variability, we cross-linked MBD21 peptide to the following cell surface markers at 4 degrees Celsius as previously described (Singh et al. J Biol Chem. 279 (1):477-87 [2004]): transferrin receptor 1, caveolin 1, PCNA, integrins alpha v, 2, 5 and 6, integrins beta 1, 3 and 5. […] Based on the strength of these correlations, it was possible to derive crude predictive formulae for MBD-mediated uptake based on the rate of cross-linking to surface markers. Such predictive formulas could form the basis for a diagnostic procedure to select appropriate targets for MBD-based therapies.

CCRF-SB = assay type: cell-based
Procedure: as §1

SR = assay type: cell-based
Procedure: as §1

COLON 26 = assay type: cell-based
Procedure: as §1

PAN 02 = assay type: cell-based
Procedure: as §1

K562 = assay type: cell-based
Procedure: as §1

HEK 293 = assay type: cell-based
Procedure: as §1

IGR-OV1 = assay type: cell-based, human
Procedure: as §1

A2780 = assay type: cell-based, human
Procedure: as §1

OVCAR-3 = assay type: cell-based, human
Procedure: as §1

PC-3 = assay type: cell-based, human
Procedure: as §1

HOP 62 = assay type: cell-based, human
Procedure: as §1

SHP-77 = assay type: cell-based, human
Procedure: as §1

OVCAR-8 = assay type: cell-based, human
Procedure: as §1

NCI-H23 = assay type: cell-based, human
Procedure: as §1

CCRF-CEM = assay type: cell-based, human
Procedure: as §1

231 = assay type: cell-based, human
Procedure: as §1

NCI-H460 = assay type: cell-based, human
Procedure: as §1

HS-578T = assay type: cell-based, human
Procedure: as §1

HCC 2998 = assay type: cell-based, human
Procedure: as §1

A704 = assay type: cell-based, human
Procedure: as §1

HT-29 = assay type: cell-based, human
Procedure: as §1

HCT-116 = assay type: cell-based, human
Procedure: as §1

LOVO = assay type: cell-based, human
Procedure: as §1

“KKGFYKKKQCRPSKGRKRGFCWAVDKYG (cysteine pairing not given here; also: biotinylated (position not given here), complexed with SA-HRP) [MBD21]” was tested, and the “SA-HRP uptake, Cyt.” value (435; 435, cytoplasmic) was 6.1 ng, the “SA-HRP uptake, Nuc.” value (435; 435, nuclear) was 1.3 ng and the “SA-HRP uptake, Cyt.” value (CCRF-SB; cytoplasmic) was 1.7 ng. For the same sequence, the “SA-HRP uptake, Nuc.” value (CCRF-SB; nuclear) was 0.1 ng, the “SA-HRP uptake, Cyt.” value (SR; cytoplasmic) was 20.9 ng and the “SA-HRP uptake, Nuc.” value (SR; nuclear) was 0.0 ng. The “SA-HRP uptake, Cyt.” value (COLON 26; COLON 26, cytoplasmic) was 8.9 ng, the “SA-HRP uptake, Nuc.” value (COLON 26; COLON 26, nuclear) was 2.2 ng and the “SA-HRP uptake, Cyt.” value (PAN 02; PAN 02, cytoplasmic) was 9.3 ng. For the same sequence, the “SA-HRP uptake, Nuc.” value (PAN 02; PAN 02, nuclear) was 2.2 ng, the “SA-HRP uptake, Cyt.” value (K562; K562, cytoplasmic) was 2.8 ng and the “SA-HRP uptake, Nuc.” value (K562; K562, nuclear) was 1.1 ng. The “SA-HRP uptake, Cyt.” value (HEK 293; HEK 293, cytoplasmic) was 13.6 ng, the “SA-HRP uptake, Nuc.” value (HEK 293; HEK 293, nuclear) was 4.5 ng and the “SA-HRP uptake, Cyt.” value (IGR-OV1; IGR-OV1, cytoplasmic) was 1.9 ng. The “SA-HRP uptake, Nuc.” value (IGR-OV1; IGR-OV1, nuclear) was 1.0 ng, the “SA-HRP uptake, Cyt.” value (A2780; A2780, cytoplasmic) was 7.5 ng and the “SA-HRP uptake, Nuc.” value (A2780; A2780, nuclear) was 1.0 ng. For the same sequence, the “SA-HRP uptake, Cyt.” value (OVCAR-3; OVCAR-3, cytoplasmic) was under 0.04 ng, the “SA-HRP uptake, Nuc.” value (OVCAR-3; OVCAR-3, nuclear) was 3.2 ng and the “SA-HRP uptake, Cyt.” value (PC-3; PC-3, cytoplasmic) was 44.2 ng. For the same sequence, the “SA-HRP uptake, Nuc.” value (PC-3; PC-3, nuclear) was 13.2 ng, the “SA-HRP uptake, Cyt.” value (HOP 62; HOP 62, cytoplasmic) was 4.1 ng and the “SA-HRP uptake, Nuc.” value (HOP 62; HOP 62, nuclear) was 0.2 ng. For the same sequence, the “SA-HRP uptake, Cyt.” value (SHP-77; SHP-77, cytoplasmic) was 6.6 ng, the “SA-HRP uptake, Nuc.” value (SHP-77; SHP-77, nuclear) was 2.7 ng and the “SA-HRP uptake, Cyt.” value (OVCAR-8; OVCAR-8, cytoplasmic) was 6.1 ng. The “SA-HRP uptake, Nuc.” value (OVCAR-8; OVCAR-8, nuclear) was 13.1 ng, the “SA-HRP uptake, Cyt.” value (NCI-H23; NCI-H23, cytoplasmic) was 8.0 ng and the “SA-HRP uptake, Nuc.” value (NCI-H23; NCI-H23, nuclear) was 8.7 ng. The “SA-HRP uptake, Cyt.” value (CCRF-CEM; cytoplasmic) was 41.3 ng, the “SA-HRP uptake, Nuc.” value (CCRF-CEM; nuclear) was 2.0 ng and the “SA-HRP uptake, Cyt.” value (231; 231, cytoplasmic) was 3.4 ng. The “SA-HRP uptake, Nuc.” value (231; 231, nuclear) was 1.1 ng, the “SA-HRP uptake, Cyt.” value (NCI-H460; NCI-H460, cytoplasmic) was 11.6 ng and the “SA-HRP uptake, Nuc.” value (NCI-H460; NCI-H460, nuclear) was 5.8 ng. The “SA-HRP uptake, Cyt.” value (HS-578T; cytoplasmic) was 2.8 ng, the “SA-HRP uptake, Nuc.” value (HS-578T; nuclear) was 2.3 ng and the “SA-HRP uptake, Cyt.” value (HCC 2998; HCC 2998, cytoplasmic) was 2.1 ng. For the same sequence, the “SA-HRP uptake, Nuc.” value (HCC 2998; HCC 2998, nuclear) was 2.4 ng, the “SA-HRP uptake, Cyt.” value (A704; A704, cytoplasmic) was 4.5 ng and the “SA-HRP uptake, Nuc.” value (A704; A704, nuclear) was 1.2 ng. For the same sequence, the “SA-HRP uptake, Cyt.” value (HT-29; HT-29, cytoplasmic) was 3.5 ng, the “SA-HRP uptake, Nuc.” value (HT-29; HT-29, nuclear) was 9.5 ng and the “SA-HRP uptake, Cyt.” value (HCT-116; HCT-116, cytoplasmic) was 12.4 ng. The “SA-HRP uptake, Nuc.” value (HCT-116; HCT-116, nuclear) was 9.5 ng, the “SA-HRP uptake, Cyt.” value (LOVO; cytoplasmic) was 8.7 ng and the “SA-HRP uptake, Nuc.” value (LOVO; nuclear) was 3.8 ng.
